Experimental data taken from publication PMC10636063, “Progesterone activation of β1-containing BK channels involves two binding sites” (Nature Communications, 2023).
Values joined by “and” are separate entries in the source; they are usually repeats but may differ in a detail not shown here. Equal entries are not always repeated.

What was measured:
[1] = target: T1, β1W87F (Rattus norvegicus, UniProt P97678, W87F); test: Thermal unfolding (MST) of β1W87F; assay type: binding; details: 0.004 and 4.1 µM
T1 construct: FLAG (DYKDDDDK); made in house; host or cells: CHO cells, transient transfection, anti-flag immunoprecipitation
From the text: BK channel-forming slo1 cDNA (cbv1 isoform; AY330293) was cloned from rat cerebral artery SM cells, and inserted into pcDNA3.1 vector as described. BK β1 cDNA (KCNMB1 product; NP_011452; FJ154955) were isolated from rat cerebral artery SM cells and cloned as described. β4 cDNA (KCNMB4; NP_055320; AY028605) were generously provided by Dr. Ligia Toro. CHO cells were transiently transfected with cbv1 ± β1-, or β4-carrying pcDNA3.1 using X-tremeGENE HP (Sigma-Aldrich). Mutations to β1/4 cDNAs were conducted by Genscript, with sequences being confirmed to be >99% identical to KCNMB1 product; NP_011452 or β4 KCNMB4; NP_055320; respectively. β1/4 and mutant constructs were flag-tagged (DYKDDDDK-tag) by Genscript services for subsequent immunoprecipitation and use in microscale thermophoresis studies.
Wt β1, wt β4 and mutant constructs were purified by immunoprecipitation using Dynabeads Protein G Kit (10007D by Invitrogen) and following the manufacturer’s instructions. […] The unfolding profile of a protein is a plot of its fluorescence signal against temperature. […] During the heating process, fluorescence is recorded at 330 and 350 nm. The resulting fluorescence ratio change is then analyzed for onset and inflection points. The temperature of onset and inflection is determined using built-in analysis function in Nanotemper PR.therm-control software. […]

[2] = test system: slo1 (cbv1 isoform)+β4 BK channels; test: Channel activity (NPo) in POPE/POPS bilayers, cbv1+β4; assay type: biochemical, rat; details: 10 μM
From the text: BK channel-forming slo1 cDNA (cbv1 isoform; AY330293) was cloned from rat cerebral artery SM cells, and inserted into pcDNA3.1 vector as described. BK β1 cDNA (KCNMB1 product; NP_011452; FJ154955) were isolated from rat cerebral artery SM cells and cloned as described. β4 cDNA (KCNMB4; NP_055320; AY028605) were generously provided by Dr. Ligia Toro. CHO cells were transiently transfected with cbv1 ± β1-, or β4-carrying pcDNA3.1 using X-tremeGENE HP (Sigma-Aldrich). […]
Proteins for electrophysiological recordings in artificial lipid bilayers remained untagged. […] BK channel-mediated ionic current was recorded in planar lipid bilayers consisting of a POPE:POPS 3:1 (w/w) mixture. […]
Patch-clamp and bilayer data were analyzed using Clampfit 10.7 software (Molecular Devices). […] Drug-induced NPo changes were determined by comparing baseline NPo (i.e., NPo with the patch/cell perfused with bath solution) to the NPo from the same patch/cell exposed to the agent under study (DMSO/PROG/oxime) dissolved in bath solution. NPo and mean open time values were automatically calculated using Clampfit 10.7, the latter using a 50% threshold detection event.

[3] = target: T2, smooth muscle myocyte BK channels (KCNMB1-/-) (Mus musculus, UniProt Q08460); test: Inside-out patch-clamp of MCA smooth muscle myocytes, KCNMB1-/- mice; assay type: cell-based; details: for normalized NPo, time course Fig 5C: beta1KO, PROG 10uM
T2 construct: endogenous in cells; host or cells: freshly isolated middle cerebral artery smooth muscle cells of KCNMB1-/- mice, inside-out patches
Protocol: Ionic currents were recorded from excised, inside-out (I/O) patches. […] In all experiments, free [Ca^2+] in solution was adjusted to the desired value by adding the appropriate amount of Ca^2+ from a 1 mM CaCl2 stock. An agar bridge with Cl^- as main anion was used as ground electrode. Solutions were applied onto the cytosolic side of I/O patches using an automated, pressurized system (Octaflow; […] Ionic currents at single channel resolution were recorded using an EPC8 amplifier (HEKA) at 1 kHz. Data were digitized at 5 kHz using a Digidata […] A/D converter and pCLAMP 8.0 (Molecular Devices); n = 5/group. […] Drug-induced NPo changes were determined by comparing baseline NPo (i.e., NPo with the patch/cell perfused with bath solution) to the NPo from the same patch/cell exposed to the agent under study (DMSO/PROG/oxime) dissolved in bath solution.

T2 sequence (Q08460 whole entry): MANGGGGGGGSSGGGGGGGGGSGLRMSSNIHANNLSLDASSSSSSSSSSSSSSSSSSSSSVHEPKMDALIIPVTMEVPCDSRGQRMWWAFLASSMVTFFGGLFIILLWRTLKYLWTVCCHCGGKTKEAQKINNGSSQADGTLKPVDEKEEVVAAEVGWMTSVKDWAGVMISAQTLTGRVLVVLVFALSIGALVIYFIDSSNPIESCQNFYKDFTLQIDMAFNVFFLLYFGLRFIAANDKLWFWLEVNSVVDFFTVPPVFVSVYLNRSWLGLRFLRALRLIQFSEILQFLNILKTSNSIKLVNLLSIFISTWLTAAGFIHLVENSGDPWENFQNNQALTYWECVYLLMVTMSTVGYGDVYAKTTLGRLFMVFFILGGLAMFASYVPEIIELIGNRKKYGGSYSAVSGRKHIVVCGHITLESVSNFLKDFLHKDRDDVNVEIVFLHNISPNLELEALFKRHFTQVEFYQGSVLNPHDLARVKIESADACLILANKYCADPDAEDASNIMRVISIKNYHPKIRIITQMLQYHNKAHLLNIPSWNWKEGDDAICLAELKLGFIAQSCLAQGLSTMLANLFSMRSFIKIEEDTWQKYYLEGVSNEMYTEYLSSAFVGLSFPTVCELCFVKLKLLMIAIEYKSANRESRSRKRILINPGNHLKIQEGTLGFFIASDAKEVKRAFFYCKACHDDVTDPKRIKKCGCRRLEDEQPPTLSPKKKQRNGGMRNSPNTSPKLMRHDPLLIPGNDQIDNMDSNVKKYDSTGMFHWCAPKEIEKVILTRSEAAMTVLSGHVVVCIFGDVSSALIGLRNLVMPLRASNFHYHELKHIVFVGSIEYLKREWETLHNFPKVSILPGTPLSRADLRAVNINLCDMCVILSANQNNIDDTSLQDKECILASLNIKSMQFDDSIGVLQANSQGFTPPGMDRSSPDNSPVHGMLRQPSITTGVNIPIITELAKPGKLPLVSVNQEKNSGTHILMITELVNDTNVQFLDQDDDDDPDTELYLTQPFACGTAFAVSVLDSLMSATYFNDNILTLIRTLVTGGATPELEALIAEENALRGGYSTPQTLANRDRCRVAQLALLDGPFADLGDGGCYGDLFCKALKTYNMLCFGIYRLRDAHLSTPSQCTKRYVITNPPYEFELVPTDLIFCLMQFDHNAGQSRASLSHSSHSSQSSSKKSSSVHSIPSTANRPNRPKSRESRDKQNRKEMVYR
T1 sequence (P97678 whole entry W87F): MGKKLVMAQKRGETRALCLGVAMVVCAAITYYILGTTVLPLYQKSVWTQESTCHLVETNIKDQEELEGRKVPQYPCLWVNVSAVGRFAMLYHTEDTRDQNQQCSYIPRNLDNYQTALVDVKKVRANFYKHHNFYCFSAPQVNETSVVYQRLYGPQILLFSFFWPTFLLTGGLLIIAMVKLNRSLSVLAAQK

SMILES: CC(=O)[C@H]1CC[C@H]2[C@@H]3CCC4=CC(=O)CC[C@]4(C)[C@H]3CC[C@]12C [PROG, Progesterone]
- effect on thermal unfolding / binding [1]: loss of PROG binding
- action on channel activity (NPo) [2]: readily and robustly activated
- action on BK channel activity ([3]; 10 µM, I/O patches, 30 μM free Ca2+): consistently resistant to PROG
- normalized NPo, scatter Fig 5D ([3]; KO, PROG, single cells (same values as 5C time 13)): 1.285 and 0.9695 and 0.9053 and 0.9515 and 1.0301
- normalized NPo, time course Fig 5C ([3]; time 1 (normalisation reference), columns = cell number): 1
- normalized NPo, time course Fig 5C ([3]; time 2): 0.9681 and 1.062 and 1.027 and 1.211 and 0.9954
- normalized NPo, time course Fig 5C ([3]; time 3): 0.9157 and 1.074 and 1.107 and 1.076 and 1.008
- normalized NPo, time course Fig 5C ([3]; time 4): 1.013 and 0.9333 and 1.023 and 1.02 and 0.9985
- normalized NPo, time course Fig 5C ([3]; time 5): 0.8445 and 0.9395 and 0.9666 and 0.9766 and 1.044
- normalized NPo, time course Fig 5C ([3]; time 6): 1.335 and 0.9407 and 1.013 and 1.133 and 0.9069
- normalized NPo, time course Fig 5C ([3]; time 7): 1.401 and 0.9722 and 0.9298 and 1.141 and 1.008
- normalized NPo, time course Fig 5C ([3]; time 8): 0.9307 and 0.9753 and 1 and 1.059 and 0.9374
- normalized NPo, time course Fig 5C ([3]; time 9): 0.8843 and 0.9534 and 0.8763 and 1.168 and 1.029
- normalized NPo, time course Fig 5C ([3]; time 10): 0.9107 and 1 and 0.9833 and 1.22 and 0.9731
- normalized NPo, time course Fig 5C ([3]; time 11): 0.9343 and 1.019 and 1.187 and 1.237 and 0.9145
- normalized NPo, time course Fig 5C ([3]; time 13): 0.9053 and 0.9515 and 1.0301 and 1.285 and 0.9695
- normalized NPo, time course Fig 5C ([3]; time 14): 0.872 and 0.9873 and 0.9766 and 1.12 and 1.0626
- normalized NPo, time course Fig 5C ([3]; time 15): 0.8834 and 0.9392 and 0.9933 and 1.107 and 1.032
- normalized NPo, time course Fig 5C ([3]; time 16): 0.8292 and 1.033 and 0.8763 and 1.072 and 0.8061
- normalized NPo, time course Fig 5C ([3]; time 17): 0.881 and 1.326 and 0.8485 and 1.237 and 0.7481
- normalized NPo, time course Fig 5C ([3]; time 18): 0.8971 and 1.152 and 0.7759 and 1.189 and 1.06
- normalized NPo, time course Fig 5C ([3]; time 19): 0.8576 and 1.179 and 0.7388 and 1.176 and 0.8214
- normalized NPo, time course Fig 5C ([3]; time 20): 0.8348 and 0.9401 and 0.8127 and 1.189 and 0.8275
- normalized NPo, time course Fig 5C ([3]; time 21): 0.9702 and 1.112 and 0.8729 and 1.098 and 1.041
- normalized NPo, time course Fig 5C ([3]; time 22): 0.9222 and 1.09 and 0.9773 and 1.02
